Results reported in PMC2095803 (Nucleic Acids Research, 2007).

Assays:
Experiment in all cases: PEP termination assay
[1] = target: AmpliTaqFS DNA polymerase (Thermus aquaticus, UniProt P19821, F667Y/G46D); assay type: biochemical, Thermus aquaticus YT-1
Bst DNA polymerase = target: T1, Bst DNA polymerase (Geobacillus stearothermophilus, UniProt P52026); assay type: biochemical, Bacillus stearothermophilus
T1 sequence (P52026 289-876 limits assumed): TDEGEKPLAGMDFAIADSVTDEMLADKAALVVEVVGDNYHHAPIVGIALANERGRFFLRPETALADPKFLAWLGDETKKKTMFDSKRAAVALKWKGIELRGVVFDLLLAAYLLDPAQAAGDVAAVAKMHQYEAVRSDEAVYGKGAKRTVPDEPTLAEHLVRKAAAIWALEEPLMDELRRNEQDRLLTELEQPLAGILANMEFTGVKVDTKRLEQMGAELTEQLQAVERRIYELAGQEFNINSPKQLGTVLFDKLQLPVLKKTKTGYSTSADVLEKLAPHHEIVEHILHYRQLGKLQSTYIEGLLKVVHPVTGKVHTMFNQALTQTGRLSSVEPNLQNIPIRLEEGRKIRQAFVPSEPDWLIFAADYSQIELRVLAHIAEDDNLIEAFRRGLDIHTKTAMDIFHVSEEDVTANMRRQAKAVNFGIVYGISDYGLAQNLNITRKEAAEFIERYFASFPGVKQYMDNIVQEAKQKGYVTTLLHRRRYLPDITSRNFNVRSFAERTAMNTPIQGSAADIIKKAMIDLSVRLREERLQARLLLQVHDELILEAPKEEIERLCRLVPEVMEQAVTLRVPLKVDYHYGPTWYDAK

[2] = target: T2, DeepVent(exo−) DNA polymerase (Pyrococcus sp. GB-D, UniProt Q51334, D141A/E143A); assay type: biochemical, Pyrococcus species GB-D
T2 sequence (Q51334 with tags, fused parts or gaps D141A/E143A): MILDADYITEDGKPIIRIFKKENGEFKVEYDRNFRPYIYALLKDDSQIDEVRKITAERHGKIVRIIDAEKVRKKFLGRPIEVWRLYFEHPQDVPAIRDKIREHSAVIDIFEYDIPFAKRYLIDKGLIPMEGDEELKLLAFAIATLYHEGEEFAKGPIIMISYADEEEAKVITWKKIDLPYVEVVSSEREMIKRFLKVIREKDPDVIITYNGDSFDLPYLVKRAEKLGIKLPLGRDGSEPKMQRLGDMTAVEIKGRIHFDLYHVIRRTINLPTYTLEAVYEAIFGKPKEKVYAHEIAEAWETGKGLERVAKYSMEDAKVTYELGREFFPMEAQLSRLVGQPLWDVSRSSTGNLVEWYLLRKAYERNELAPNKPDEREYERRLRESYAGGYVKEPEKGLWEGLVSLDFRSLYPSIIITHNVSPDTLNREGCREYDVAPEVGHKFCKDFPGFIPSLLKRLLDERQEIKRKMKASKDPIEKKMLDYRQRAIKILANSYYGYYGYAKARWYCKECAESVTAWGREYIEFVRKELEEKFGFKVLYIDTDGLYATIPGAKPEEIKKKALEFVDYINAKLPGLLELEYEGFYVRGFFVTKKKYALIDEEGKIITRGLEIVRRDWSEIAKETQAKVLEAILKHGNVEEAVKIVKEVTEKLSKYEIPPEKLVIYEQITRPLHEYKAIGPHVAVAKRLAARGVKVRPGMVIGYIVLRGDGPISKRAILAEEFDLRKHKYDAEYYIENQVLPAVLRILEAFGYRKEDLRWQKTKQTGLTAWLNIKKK

AmpliTaqFS DNA polymerase, sequence (P19821 whole entry G46D/F667Y): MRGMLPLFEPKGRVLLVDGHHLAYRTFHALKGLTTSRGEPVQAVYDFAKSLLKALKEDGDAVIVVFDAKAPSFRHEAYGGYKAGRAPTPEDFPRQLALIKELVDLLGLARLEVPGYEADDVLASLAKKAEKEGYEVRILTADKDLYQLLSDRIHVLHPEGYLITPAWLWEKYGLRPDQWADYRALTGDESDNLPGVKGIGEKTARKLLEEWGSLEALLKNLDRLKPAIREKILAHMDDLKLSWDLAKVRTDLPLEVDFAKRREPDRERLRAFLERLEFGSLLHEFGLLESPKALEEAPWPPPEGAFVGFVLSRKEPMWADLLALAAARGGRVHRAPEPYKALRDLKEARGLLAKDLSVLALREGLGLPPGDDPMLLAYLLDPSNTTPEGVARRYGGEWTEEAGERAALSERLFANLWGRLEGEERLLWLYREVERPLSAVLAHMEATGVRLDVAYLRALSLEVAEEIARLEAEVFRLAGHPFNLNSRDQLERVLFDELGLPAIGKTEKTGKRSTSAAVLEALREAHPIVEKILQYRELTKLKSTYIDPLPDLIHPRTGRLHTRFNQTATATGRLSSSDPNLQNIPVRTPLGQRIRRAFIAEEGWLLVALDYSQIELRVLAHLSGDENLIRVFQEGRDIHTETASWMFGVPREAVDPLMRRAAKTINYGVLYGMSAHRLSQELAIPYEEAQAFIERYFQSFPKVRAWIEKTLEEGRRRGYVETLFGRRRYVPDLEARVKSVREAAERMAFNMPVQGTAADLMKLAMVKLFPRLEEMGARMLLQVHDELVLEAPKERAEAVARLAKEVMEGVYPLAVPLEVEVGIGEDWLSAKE

With `O=[N+]([O-])c1ccccc1CNc1ncnc2c1ncn2[C@H]1C[C@H](O)[C@@H](COP(=O)(O)OP(=O)(O)OP(=O)(O)O)O1` [Compound IIIc, N^6-(2-Nitrobenzyl)-2’-deoxyadenosine-5’-triphosphate] the IC50 [1] was 350 nM, the IC50 (Bst DNA polymerase) was 10 nM and the “% 1st Base” value (Bst DNA polymerase; Bst, 25× IC50, oligoTemplate-3) was 99.1 ± 0.3%. The “% 2nd Base” value (Bst DNA polymerase; Bst, 25× IC50, oligoTemplate-3) was <0.1%, the “% Primer” value (Bst DNA polymerase; Bst, 25× IC50, oligoTemplate-3) was 0.9 ± 0.3% and the “Extension / termination of DNA synthesis on 10-thymidine template” value (Bst DNA polymerase; Bst, at 25× its IC50 value) was “efficiently incorporated and terminated Bst DNA synthesis at the first-base position”. The IC50 [2] was 11 nM.
